In patent EP0372541A1, “Method for imparting immunosuppression” (priority 1988, dated 1990):

Legend:
[1] = tested on: cyclosporine-treated renal transplant recipients; experiment: Randomized, double-blind, placebo controlled clinical study in renal transplant recipients on cyclosporine; assay type: in vivo, human; settings: for Acute Rejection / Creatinine / Creatinine Clearance: 200 µg Q.I.D. with cyclosporine
Excerpt: A randomized, double-blind, placebo controlled study was designed: (1) to determine the safety and efficacy of a PGE₁ prostaglandin in reducing cyclosporine-induced nephrotoxicity in renal transplant recipients; and (2) to examine the effects of the PGE₁ prostaglandin on the incidence rate of clinically important events such as acute transplant rejection.
The PGE, prostaglandin evaluated was misoprostol, ((±) methyl 11α, 16-dihydroxy-16-methyl-9-oxoprost-13E-en-1-oate). Subjects received the PGE₁ prostaglandin in dosages of 200 µg or a placebo four times a day (Q.I.D.) for the first twelve weeks following transplantation. A study population of 77 subjects was evaluated. Efficacy was assessed by a serial comparison of renal function and by measuring the duration and functional severity of transplant rejection, cyclosporine nephrotoxicity, and other episodes of acute renal failure in the PGE₁ prostaglandin and the placebo groups. Serial measurements of serum creatinine and creatinine clearance were used to determine trends and differences in renal function between treatment groups.
The subjects in the clinical study were first stratified into two groups according to the source of the allograft, cadaver or living-related donor. Members of each group were assigned at random in the order of enrollment to receive the PGE₁ prostaglandin or the placebo according to a computer-generated assignment schedule prepared prior to the start of the study. The purpose of this approach was to guarantee adequate randomization of subjects as a function of allograft source and probable post-transplantation function.
The administration of the prostaglandin began with the first dose of cyclosporine. The subjects received the .prostaglandin Q.I.D. given 30-60 minutes p.c. (after a meal) and h.s. (at night). The prostaglandin initially could be administered via a nasogastric tube. Following discharge of the patient from the hospital. the patient began to administer the placebo or prostaglandin and recording the dosing in a diary. The test article dosing remained one tablet Q.I D. continuing the 30-60 minute p.c and h.s. schedule.
Hematology and chemistry profiles were obtained on the first and seventh post-transplantation days and again after four weeks. A chemistry profile was obtained at eight and twelve weeks. A urinalysis was obtained on the first post-operative day and again after four weeks.
Twenty-four hour creatinine clearance measurements were obtained on post-operative days one, three, and seven, then weekly for three weeks and at four week intervals thereafter until the study was terminated.
Serum creatinine measurements were obtained on postoperative days 1, 3 and 7, and then at weeks 4, 8, 12 and 16.
Measurement of trough cyclosporine levels were required on days one, three, five and seven; twice during each of weeks two, three and four; and at least once during weeks eight, twelve and sixteen.
Acute renal failure was defined as the presence of any of the following: • 1) Any change in renal function which prompted the principal investigator to perform a diagnostic maneuver (e.g., measure of serum creatinine concentration or urinary sodium concentration) or therapeutic maneuver (e.g., give intravenous fluids) to investigate or treat the change. • 2) A rise in serum creatinine concentration from a stable base line of at least 0.2 mg/dl/day for two days or 0.3 mg/dl in one day. • 3) A fall in urine output to less than an average of 25 ml per hour for more than 24 hours.
After twelve weeks of treatment and four additional weeks of observation, the subject underwent a physical examination and a complete medical history was reviewed. The following laboratory tests were also obtained: hematology, PT/PTT, chemistry, urinalysis. creatinine clearance, cyclosporine level and serum beta HCG (where appropriate). In addition, any other measurements of creatinine concentration or clearance obtained during the post-treatment period were recorded.

[2] = tested on: mixed lymphocyte response; experiment: Mixed lymphocyte response (MLR) assay, tritiated thymidine incorporation; assay type: cell-based; settings: Figures 9 and 10; for inhibition of the mixed lymphocyte response in combination with cyclosporine: free acid added to cyclosporine; for inhibition of the mixed lymphocyte response in combination with methylprednisolone: free acid added to methylprednisolone
Excerpt: The mixed lymphocyte response is a clinically useful predictor of the immunosuppressive activity of drugs.The mixed lymphocyte response assay data shown below and in Figures 7-10 were obtained with the following method. A stimulator panel of Epstein-Barr virus (EBV) transformed continuous lymphoblastoid cell lines was employed to magnify responses. There were equal numbers of four cell lines with eight different HLA-DR antigens (two per cell line). Stimulator cells were irradiated (13,000 rad) before suspension in a modified RPMI medium. Responder lymphocytes were prepared from heparinized recipient blood by density gradient separation before suspension in glutamine with antibiotic-supplemented RPMI medium containing 10% autologous serum. Equal numbers of responder and stimulator cells (1x 10⁵ in 0.1 ml) were incubated with 0.05 ml of medium (control) or varying concentrations of the three prostaglandin analogs (misoprostol, enisoprost and misoprostol-free acid) or methylprednisolone or cyclosporine or combinations of these agents.
Following incubation at 37°C and 5% CO₂ for five days, one microcurie of tritiated thymidine was added and cell cultures incubated for six hours. Cells were then harvested. MLR responses for the three different prostaglandin analogs were then compared for several different concentrations (Figure 7). The effects of the prostaglandins were also compared to those of the control ethanol diluent (Figure 8).

[3] = 1 Month after renal transplantation
[4] = 2 Months after renal transplantation
[5] = 3 Months after renal transplantation
[6] = listed as PGE₁ prostaglandin free acid

Row | SMILES | Acute Rejection [1, 3] | Creatinine [1, 3] | Creatinine Clearance [1, 3] | Acute Rejection [1, 4] | Creatinine [1, 4] | Creatinine Clearance [1, 4] | Acute Rejection [1, 5] | Creatinine [1, 5] | Creatinine Clearance [1, 5] | renal function ([1]; cyclosporine-treated renal transplant recipients, versus placebo) | acute rejection versus placebo ([1]; during the three months of treatment, p = 0.015) | cyclosporine absorption (cyclosporine dosage and trough blood levels by HPLC) ([1]; human, in vivo) | cyclosporine nephrotoxicity (incidence rate of first episodes) ([1]; versus placebo, Figure 5) | inhibition of the mixed lymphocyte response in combination with cyclosporine [2] | inhibition of the mixed lymphocyte response in combination with cyclosporine [2, 6] | inhibition of the mixed lymphocyte response in combination with methylprednisolone [2] | inhibition of the mixed lymphocyte response in combination with methylprednisolone [2, 6]
1 | CCCCC(C)(O)C/C=C/[C@H]1[C@H](O)CC(=O)[C@@H]1CCCCCCC(=O)OC (mixture of isomers) [PGE₁, (±) methyl 11α, 16-dihydroxy-16-methyl-9-oxoprost-13E-en-1-oate] | 3 first episode/mo | 1.6 ± 0.2 mg/dL | 73 ± 5 ml/min/1.73m2 | 2 first episode/mo | 1.4 ± 0.1 mg/dL | 77 ± 6 ml/min/1.73m2 | 2 first episode/mo | 1.4 ± 0.1 mg/dL | 81 ± 5 ml/min/1.73m2 | improved renal function | significantly reduced | no interference with cyclosporine absorption | no increase in cyclosporine nephrotoxicity | – | – | – | –
2 | CCCCC(C)(O)CC=CC1C(O)CC(=O)C1CCCCCCC(=O)O (racemic) [misoprostol free acid] | – | – | – | – | – | – | – | – | – | – | – | – | – | clear evidence of enhancement of immunosuppressive activity | larger than additive effect | clear evidence of enhancement of immunosuppressive activity | larger than additive effect
